{"source": "patent US6855546B1", "about": "“Controlling availability or activity of proteins by use of protease inhibitors or receptor fragments” (Universiteit Utrecht, priority 1999, dated 2005)", "format_in_all_cases": "cell-based, Chinese hamster", "key": {"[1]": {"test_system": "CHO-ts20 cells expressing the rabbit GHR", "experiment": "Cy3-GH endocytosis by confocal microscopy, wild-type GHR", "details": "20 mM inhibitor 3 hours at 30° C., then Cy3-GH 30 minutes", "method": "FIG. 1. Effect of proteasome inhibitors on Cy3-GH and Cy3-transferrin endocytosis. CHO-ts20 cells, expressing either wild-type (A, D, G, C, F, I) or truncated GHR (B, E, H), were incubated with vehicle (A-C) or with 20 mM MG132 (D-F) or 20 mM lactacystin (G-I) for 3 hours at 30° C.; then Cy3-GH (A, B, D, E, G, H), or Cy3-transferrin (C, F, I) were added for 30 minutes, and the cells were washed, fixed and the fluorescence was visualized by confocal microscopy. If excess labeled ligand was added, no uptake was observed. If the cells in D, G were treated at pH 2.5 before fixation, virtually no label was visible (not shown).\nDown-regulation of signal-transducing membrane receptors is part of highly programmed cascades of events leading both to extinction of the signaling pathway(s) and to rapid degradation of the primary messenger: the receptor and its ligand (3, 4, 5, 6, 7). In the absence of ligand, the half-life of GHR is approximately 1 to 2 hours depending on the cell system used. The assumption is that this is mainly due to a proteolytic cleavage in the extracellular domain of the GHR resulting in soluble GH-binding protein (8). If ligand is present, a completely different scenario follows: two GHR polypeptides dimerize, they are phosphorylated by the tyrosine kinase Jak2 and ubiquitinated, and the complex is endocytosed. […]"}, "[2]": {"test_system": "cell-surface GHR in CHO-ts20 cells", "experiment": "Degradation of cell-surface biotinylated GHR", "method": "(§1) FIG. 3. Effect of MG132 on GHR degradation in the presence of ligand. A. Cells were pulse labeled with ^35S-methionine and then chased in unlabeled methionine in the presence of 16 nM GH with or without MG132 for the times indicated. GHR was immunoprecipitated using an anti-cytosolic tail antibody. The radioactivity in the mature (upper) band (inset) was quantitated and plotted. □, control (1% ethanol); ●, MG132. B. Cells were biotinylated and incubated in the presence of GH with MG132 or with vehicle only at 30° C. for the time periods indicated. After streptavidin-bead purification aliquots of the cell lysates were analyzed by SDS-PAGF; western blots were incubated with a monoclonal antibody specific for the extracellular GHR domain and detected with enhanced chemifluorescence. The sharp band below the mature GHR (130 kDa) originated from a slight background staining of precursor GHR (110 kDa), due to incomplete removal of biotinylation reagent at cell lysis.\nIf proteasome inhibitors affect GHR-uptake, it is expected that the inhibitors prolong the lifetime of GHRs at the cell surface. To address this, we measured the effect of MG132 in a pulse-chase experiment. […] To assess the effect of MG132 more directly, we measured degradation of cell-surface biotinylated GHR after incubation in the presence of ligand (FIG. 3B). […] However, clearance from the cell surface was reduced >50% in the presence of MG132. […] The lifetime of this species was extended in the presence of MG132. Attempts to accumulate this species or other degradation products failed until now.\nCell surface biotinylation. CHO-ts20 cells, grown in 35 mm dishes, were incubated for 60 minutes at 30° C. in aMEN/HEPES, biotinylated on ice for 30 minutes using sulfo-NHS-SS-biotin (Pierce, Rockford, Ill.), and washed free of biotinylating reagents. For GH binding, the cells were incubated for 1 hour on ice in the presence of 16 nM GH with either 20 mM MG132 or 1% ethanol. The incubation was continued at 30° C. for various time periods in the presence of GH with MG132 or ethanol only. […]"}, "[3]": {"test_system": "mature GHR in CHO-ts20 cells", "experiment": "35S-methionine pulse-chase of GHR in the presence of GH", "details": "16 nM GH", "method": "as §1, with “The sharp band below the mature GHR (130 kDa) originated from a slight background staining of precursor GHR (110 kDa), due to incomplete removal of biotinylation reagent at cell lysis.” left out\nIf proteasome inhibitors affect GHR-uptake, it is expected that the inhibitors prolong the lifetime of GHRs at the cell surface. To address this, we measured the effect of MG132 in a pulse-chase experiment. […] To assess the effect of MG132 more directly, we measured degradation of cell-surface biotinylated GHR after incubation in the presence of ligand (FIG. 3B). […]\nMetabolic labeling. […] The radioactivity was determined using a Molecular Dynamics phosphoimager (STORM860 equipped with ImageQuant software, Molecular Dynamics, Sunnyvale, Calif.). […]"}, "[4]": {"test_system": "CHO-ts20 cells expressing GHR", "experiment": "125I-GH uptake (internalization) kinetic experiment", "details": "inhibitor 20 mM added 3 hours before; 125I-GH 8 nM bound on ice, incubated at 30° C.", "method": "FIG. 2. […] CHO-ts20 cells were incubated with or without inhibitors for 3 hours at 30° C., and put on ice for 60 minutes with ^125I-GH. The cells were then incubated at 30° C. as indicated. Background label was determined in untransfected cells and subtracted. Plotted are the amounts of ^125I-GH internalized as a percentage of the cell-associated radioactivity at the start of incubation. □, control (1% ethanol); ●, MG132; ◯, lactocystin; X, lactacystin β-lactone.\nTo confirm and quantify the effect of the proteasome inhibitors, we measured the uptake of ^125I-GH in a kinetic experiment. Cells were pretreated with the inhibitors, ^125I-GH was bound on ice, and cells were incubated for various periods of time (FIG. 2). At the end of the incubation period, uptake was determined by washing the cells at low pH to remove the label from the cell surface. Again, GH uptake was inhibited by the proteasome inhibitors: MG132 and lactacystin b-lactone reduced the uptake to approximately 25% of the control level. […] TCA-soluble radioactivity in the culture medium, derived from lysosomal degradation of ^125I-GH, increased after 15 minutes if no inhibitor was added; virtually no TCA-soluble radioactivity appeared if the inhibitors were present (not shown).\nGH binding and internalization. ^125I-hGH was prepared using chloramine T (28). For internalization studies, cells were grown in 35 mm dishes, washed with aMEM, supplemented with 20 mM HEPES, incubated for 1 hour at 30° C. in aMEM/HEPES, ^125I-GH (8 nM) was bound on ice for 60 minutes in the absence or presence of excess unlabeled GH, and the cells were washed free of unbound GH and incubated for 0 to 60 minutes. If indicated, lactacystin or its b-lactone (20 mM), MG132 (20 mM), and ZL3vinylsulfone (20 mM), dissolved in either ethanol or dimethylsulfoxide, or only vehicle, were added 3 hours before the start of the experiment. Membrane-associated GH was removed by acid wash (0.15 M NaCl, 0.05 M glycine, pH 2.5) (29) and internalized GH was determined by measuring the radioactivity after solubilization of the acid-treated cells by 1 M NaOH."}, "[5]": {"test_system": "GHR in CHO-ts20 cells (temperature-sensitive E1)", "experiment": "GH-induced GHR degradation, quantitative western blot, CHO-ts20", "details": "3 hours", "method": "(§2) FIG. 4. GH-induced receptor degradation depends on an intact ubiquitin conjugation system. CHO-ts20 and CHO-E36 cells were incubated at the permissive or non-permissive temperature for 3 hours in the presence or absence of GH. Cells were lysed and aliquots were analyzed by western blotting and enhanced chemifluorescence. M, mature GHR, P, precursor GHR.\n(§3) To investigate whether the ubiquitin system selects the GHR for truncation by the proteasome, we expressed the receptor in CHO-ts20 cells harboring a temperature-sensitive ubiquitin-activating enzyme, E1. The cells were incubated for 60 minutes at 42° C. (sufficient to stop generation of newly ubiquitinated proteins), followed by 3 hours at 40° C. in the presence or absence of GH, and the amounts of GHR were determined by quantitative western blot analysis (FIG. 4). At the permissive temperature, incubation in the presence of GH decreased the steady-state amounts of GHR. If the cells were kept at 40° C. in the presence of GH, the amount of GHR increased to 170%. To ascertain that this increase is solely due to a defective ubiquitin conjugation system, we used the CHO-E36 cells with an intact ubiquitin conjugation system at 40° C. As expected, in these cells the steady state of mature GHR decreased to approximately 50% of that without GH, both at 30 and 40° C. […]"}, "GHR in CHO-E36 cells": {"test_system": "GHR in CHO-E36 cells", "experiment": "GH-induced GHR degradation, quantitative western blot, CHO-E36", "details": "CHO-E36, both at 30 and 40° C.", "method": "as §2, §3"}}, "note": "Where a SMILES comes first, the peptide text is derived from it. The star is where a group is joined. Cbz = O=C(OCc1ccccc1)*", "data": [{"compound": "CC(C)C[C@@H](C=O)NC(=O)[C@H](CC(C)C)NC(=O)[C@H](CC(C)C)NC(=O)OCc1ccccc1", "note": "[MG132] (Cbz-Leu-Leu-Leu-aldehyde)", "values": [{"measurement": "Cy3-GH uptake (intracellular fluorescent label)", "setting": "[1]", "value": "hardly any label was present intracellularly"}, {"measurement": "lifetime of biotinylated 85-kDa intermediate degradation product", "setting": "[2]; in the presence of GH", "value": "extended"}, {"measurement": "reduction of GHR clearance from the cell surface", "setting": "[2]; in the presence of GH (16 nM), 20 mM MG132, 30° C.", "value": "> 50", "unit": "%"}, {"measurement": "degradation rate of mature GHR", "setting": "[3]", "value": "affects the degradation rate of mature GHR"}, {"measurement": "membrane transport from ER to the Golgi complex (maturation kinetics 110 kDa to 130 kDa)", "setting": "[3]", "value": "does not affect membrane transport from ER to the Golgi complex"}, {"measurement": "125I-GH uptake relative to control", "setting": "[4]", "value": "approximately 25 % of the control level"}]}, {"compound": "CC(C)[C@H](O)[C@@]12NC(=O)[C@H](C)[C@@H]1OC2=O", "note": "[lactacystin b-lactone]", "values": [{"measurement": "125I-GH uptake relative to control", "setting": "[4]", "value": "approximately 25 % of the control level"}]}, {"compound": "CC(=O)N[C@@H](CSC(=O)[C@]1([C@@H](O)C(C)C)NC(=O)[C@H](C)[C@@H]1O)C(=O)O", "note": "[lactacystin]", "values": [{"measurement": "Cy3-GH uptake (intracellular fluorescent label)", "setting": "[1]", "value": "hardly any label was present intracellularly"}, {"measurement": "125I-GH uptake relative to control", "setting": "[4]", "value": "somewhat less effective"}]}, {"compound": "GH: growth hormone, ligand of the growth hormone receptor", "values": [{"measurement": "amount of GHR in the presence of GH (percentage of mature GHR present without GH)", "setting": "[5]; CHO-ts20, 40° C. (non-permissive)", "value": 170, "unit": "%"}, {"measurement": "steady-state amount of GHR in the presence of GH", "setting": "[5]; CHO-ts20, permissive temperature", "value": "decreased"}, {"measurement": "steady state of mature GHR relative to that without GH", "setting": "GHR in CHO-E36 cells", "value": "approximately 50%"}, {"measurement": "disappearance of cell-surface biotinylated GHR", "setting": "[2]; incubation in the presence of ligand, 30° C.", "value": "induced a rapid disappearance of the GHR"}]}]}
